Experimental data: PubChem BioAssay AID2060622 (Molecular Pharmacology Branch, DTP, NCI, 2025)

Tested on: 242566-281-R-J2-PDC complex spheroid viability
Assay: Anticancer human tumor 242566-281-R-J2-PDC patient-derived pancreatic carcinoma cell line growth inhibition [CLK]
Conditions: for IC50: curve of first compound; for viability, T/C: stronger effect = lower value
Outline: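 Patient-derived tumor cells grown as complex spheroids with HUVEC endothelial cells and mesenchymal stem cells, treated with drug combinations. Concentrations descend in half-log steps from near clinical Cmax, or from 10 microM if Cmax unknown.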

[1] = second compound 0.0316 µM, first compound 0.0316 µM
[2] = second compound 0.0316 µM, first compound 0.1 µM
[3] = second compound 0.1 µM, first compound 0.0316 µM
[4] = second compound 0.1 µM, first compound 0.1 µM
[5] = second compound 0.316 µM, first compound 0.0316 µM
[6] = second compound 0.316 µM, first compound 0.1 µM
[7] = second compound 1 µM, first compound 0.0316 µM
[8] = second compound 1 µM, first compound 0.1 µM
[9] = second compound 3.16 µM, first compound 0.0316 µM
[10] = second compound 3.16 µM, first compound 0.1 µM
[11] = second compound 10 µM, first compound 0.0316 µM
[12] = second compound 10 µM, first compound 0.1 µM
[13] = second compound 0.0316 µM, first compound 0.316 µM
[14] = second compound 0.0316 µM, first compound 1 µM
[15] = second compound 0.0316 µM, first compound 3.16 µM
[16] = second compound 0.0316 µM, first compound 10 µM
[17] = second compound 0.1 µM, first compound 0.316 µM
[18] = second compound 0.1 µM, first compound 1 µM
[19] = second compound 0.1 µM, first compound 3.16 µM
[20] = second compound 0.1 µM, first compound 10 µM
[21] = second compound 0.316 µM, first compound 0.316 µM
[22] = second compound 0.316 µM, first compound 1 µM
[23] = second compound 0.316 µM, first compound 3.16 µM
[24] = second compound 0.316 µM, first compound 10 µM
[25] = second compound 1 µM, first compound 0.316 µM
[26] = second compound 1 µM, first compound 1 µM
[27] = second compound 1 µM, first compound 3.16 µM
[28] = second compound 1 µM, first compound 10 µM
[29] = second compound 3.16 µM, first compound 0.316 µM
[30] = second compound 3.16 µM, first compound 1 µM
[31] = second compound 3.16 µM, first compound 3.16 µM
[32] = second compound 3.16 µM, first compound 10 µM
[33] = second compound 10 µM, first compound 0.316 µM
[34] = second compound 10 µM, first compound 1 µM
[35] = second compound 10 µM, first compound 3.16 µM
[36] = second compound 10 µM, first compound 10 µM
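Also: spheroids exposed to compounds for 7 days before readout.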
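For viability, T/C in this document: 100% = DMSO vehicle control wells.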

Cn1ncnc1[C@H]1c2n[nH]c(=O)c3cc(F)cc(c23)N[C@@H]1c1ccc(F)cc1 + CN1CCN(c2cc(C(=O)Nc3cc4cc(-c5cnn(C)c5)ccc4cn3)ccn2)CC1
IC50 (second compound 0.0316 µM): > 100 nM | IC50 (second compound 0.1 µM): > 100 nM | IC50 (second compound 0.316 µM): < 0.316 nM | IC50 (second compound 1 µM): < 0.316 nM | IC50 (second compound 3.16 µM): < 0.316 nM | IC50 (second compound 10 µM): < 0.316 nM | viability, T/C (second compound 0.0316 µM, first compound 0.000316 µM): 106% | viability, T/C (second compound 0.0316 µM, first compound 0.001 µM): 96.4% | viability, T/C (second compound 0.0316 µM, first compound 0.00316 µM): 99.5% | viability, T/C (second compound 0.0316 µM, first compound 0.01 µM): 107% | viability, T/C [1]: 97.9% | viability, T/C [2]: 88% | viability, T/C (second compound 0.1 µM, first compound 0.000316 µM): 87.7% | viability, T/C (second compound 0.1 µM, first compound 0.001 µM): 87.9% | viability, T/C (second compound 0.1 µM, first compound 0.00316 µM): 89.1% | viability, T/C (second compound 0.1 µM, first compound 0.01 µM): 86.6% | viability, T/C [3]: 84.8% | viability, T/C [4]: 62.9% | viability, T/C (second compound 0.316 µM, first compound 0.000316 µM): 34% | viability, T/C (second compound 0.316 µM, first compound 0.001 µM): 35% | viability, T/C (second compound 0.316 µM, first compound 0.00316 µM): 32.3% | viability, T/C (second compound 0.316 µM, first compound 0.01 µM): 30.9% | viability, T/C [5]: 31.3% | viability, T/C [6]: 26.8% | viability, T/C (second compound 1 µM, first compound 0.000316 µM): 4.47% | viability, T/C (second compound 1 µM, first compound 0.001 µM): 4.64% | viability, T/C (second compound 1 µM, first compound 0.00316 µM): 4.59% | viability, T/C (second compound 1 µM, first compound 0.01 µM): 4.07% | viability, T/C [7]: 3.7% | viability, T/C [8]: 3.76% | viability, T/C (second compound 3.16 µM, first compound 0.000316 µM): 6.68% | viability, T/C (second compound 3.16 µM, first compound 0.001 µM): 7.67% | viability, T/C (second compound 3.16 µM, first compound 0.00316 µM): 6.68% | viability, T/C (second compound 3.16 µM, first compound 0.01 µM): 5.7% | viability, T/C [9]: 5.67% | viability, T/C [10]: 5.8% | viability, T/C (second compound 10 µM, first compound 0.000316 µM): 0.94% | viability, T/C (second compound 10 µM, first compound 0.001 µM): 1.5% | viability, T/C (second compound 10 µM, first compound 0.00316 µM): 1.24% | viability, T/C (second compound 10 µM, first compound 0.01 µM): 1.06% | viability, T/C [11]: 2.08% | viability, T/C [12]: 1.4%

Nc1ccn(C2OC(CO)C(O)C2(F)F)c(=O)n1 (stereo unspecified) + CN1CCN(c2cc(C(=O)Nc3cc4cc(-c5cnn(C)c5)ccc4cn3)ccn2)CC1
IC50 (second compound 0.0316 µM): < 31.6 nM | IC50 (second compound 0.1 µM): < 31.6 nM | IC50 (second compound 0.316 µM): < 31.6 nM | IC50 (second compound 1 µM): < 31.6 nM | IC50 (second compound 3.16 µM): < 31.6 nM | IC50 (second compound 10 µM): < 31.6 nM | viability, T/C [1]: 46.6% | viability, T/C [2]: 20.6% | viability, T/C [13]: 10.6% | viability, T/C [14]: 13.3% | viability, T/C [15]: 8.86% | viability, T/C [16]: 6.79% | viability, T/C [3]: 48.6% | viability, T/C [4]: 15.4% | viability, T/C [17]: 10.2% | viability, T/C [18]: 6.87% | viability, T/C [19]: 6.64% | viability, T/C [20]: 5.01% | viability, T/C [5]: 23.9% | viability, T/C [6]: 15.3% | viability, T/C [21]: 10.9% | viability, T/C [22]: 4.57% | viability, T/C [23]: 4.57% | viability, T/C [24]: 3.01% | viability, T/C [7]: 4.38% | viability, T/C [8]: 4.08% | viability, T/C [25]: 3.98% | viability, T/C [26]: 4.09% | viability, T/C [27]: 4.15% | viability, T/C [28]: 3.45% | viability, T/C [9]: 7.21% | viability, T/C [10]: 6.5% | viability, T/C [29]: 5.9% | viability, T/C [30]: 5.48% | viability, T/C [31]: 5.49% | viability, T/C [32]: 5.8% | viability, T/C [11]: 1.62% | viability, T/C [12]: 1.77% | viability, T/C [33]: 1.12% | viability, T/C [34]: 1.8% | viability, T/C [35]: 1.55% | viability, T/C [36]: 1.05%

O=c1[nH]cc(F)c(=O)[nH]1 + CN1CCN(c2cc(C(=O)Nc3cc4cc(-c5cnn(C)c5)ccc4cn3)ccn2)CC1
IC50 (second compound 0.0316 µM): > 10000 nM | IC50 (second compound 0.1 µM): 5960 nM | IC50 (second compound 0.316 µM): < 31.6 nM | IC50 (second compound 1 µM): < 31.6 nM | IC50 (second compound 3.16 µM): < 31.6 nM | IC50 (second compound 10 µM): < 31.6 nM | viability, T/C [1]: 109% | viability, T/C [2]: 101% | viability, T/C [13]: 103% | viability, T/C [14]: 77% | viability, T/C [15]: 61.4% | viability, T/C [16]: 56.1% | viability, T/C [3]: 97.8% | viability, T/C [4]: 81.2% | viability, T/C [17]: 81.7% | viability, T/C [18]: 69.8% | viability, T/C [19]: 54.8% | viability, T/C [20]: 44.9% | viability, T/C [5]: 38.5% | viability, T/C [6]: 35.3% | viability, T/C [21]: 30.8% | viability, T/C [22]: 25.4% | viability, T/C [23]: 24.9% | viability, T/C [24]: 18.9% | viability, T/C [7]: 4.56% | viability, T/C [8]: 4.75% | viability, T/C [25]: 3.93% | viability, T/C [26]: 4.22% | viability, T/C [27]: 3.79% | viability, T/C [28]: 3.85% | viability, T/C [9]: 7.11% | viability, T/C [10]: 6.79% | viability, T/C [29]: 6.18% | viability, T/C [30]: 6.26% | viability, T/C [31]: 5.72% | viability, T/C [32]: 5.29% | viability, T/C [11]: 1.55% | viability, T/C [12]: 1.68% | viability, T/C [33]: 1.19% | viability, T/C [34]: 1.49% | viability, T/C [35]: 1.43% | viability, T/C [36]: 1.2%
